Like-named read-outs stand apart in the source and are kept apart here. Non-standard residues stand in square brackets, D forms with d. Residues, ends and D or L forms follow the SMILES beside them. Lys(N3) = [N-]=[N+]=NCCCC[C@H](N)C(=O)O; Aib = CC(C)(N)C(=O)O
Experiments:
human GLP1R = human GLP1R (Homo sapiens, UniProt P43220); assay: cAMP activity assay, cells expressing human GLP1R; type: cell-based
human GCGR = target: T1, human GCGR (Homo sapiens, UniProt P47871); assay: cAMP activity assay, cells expressing human GCGR; type: cell-based; details: for GCGR/GLP1R ratio: Table 5, ratio of hGCGR EC50 to hGLP1R EC50;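 for all read-outs here: cAMP production read by luminescence after one hour of peptide exposure at room temperature, EC50 from logistic curve fit, native glucagon and GLP-1 as control peptides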
T1 construct: expressed in transfected cells; grown with Blasticidin and Hygromycin
T1 sequence (P47871 26-477): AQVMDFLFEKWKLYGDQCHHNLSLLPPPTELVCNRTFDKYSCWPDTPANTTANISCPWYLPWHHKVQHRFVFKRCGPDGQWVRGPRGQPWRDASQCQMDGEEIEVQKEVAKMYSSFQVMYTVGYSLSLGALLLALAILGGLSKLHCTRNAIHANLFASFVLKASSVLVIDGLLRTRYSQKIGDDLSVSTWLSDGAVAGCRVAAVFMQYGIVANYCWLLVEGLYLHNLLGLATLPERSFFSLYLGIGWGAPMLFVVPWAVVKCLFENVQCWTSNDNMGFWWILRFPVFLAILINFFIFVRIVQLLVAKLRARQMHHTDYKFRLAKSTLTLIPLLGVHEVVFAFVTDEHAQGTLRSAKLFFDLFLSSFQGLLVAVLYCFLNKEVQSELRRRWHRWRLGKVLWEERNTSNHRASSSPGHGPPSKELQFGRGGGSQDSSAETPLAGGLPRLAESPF
Description: Activity of the incretin peptides or the conjugates at the Glucagon receptor (GCGR) and GLP-1 receptor (GLP1R) may be measured in a cAMP activity assay as follows.
Peptides are dissolved in 100% DMSO and serially diluted to generate 10 point titrations. The peptide solutions are then transferred into 384-well assay plates (150 nL/well). Assay ready frozen cells expressing human GLP1R or human GCGR are suspended in growth media consisting of DMEM medium (GIBCO), 10% FBS (GIBCO), 1×NEAA(GIBCO), 1×P/S (GIBCO), 10 μg/mL Blasticidin (GIBCO) and 200 μg/mL Hygromycin (GIBCO). […] The cell suspensions (15 μL) are then added to the assay plates containing the peptide solutions (30,000 cells/well for human GCGR; 10,000 cells/well for human GLP1R). The cells are incubated for one hour at room temperature in the dark.
Production of cAMP may be determined using HitHunterr cAMPXS kits (DiscoverX) following the manufacturer's protocol. The plates are incubated for overnight at room temperature in the dark. Luminescence may be measured using an EnVision Multilabel plate reader (Perkin Elmer). Native GLP-1 and Glucagon (Bachem) may be used as control peptides. EC50 values may be calculated using uses a 4 parameter logistic fit based on the Levenberg-Marquardt algorithm.

[1] = Table 5, incretin peptides, cAMP, read-out: hGLP1R EC50
[2] = Table 5, incretin peptides, cAMP, read-out: hGCGR_EC50

Chain of human GLP1R (P43220 24-463): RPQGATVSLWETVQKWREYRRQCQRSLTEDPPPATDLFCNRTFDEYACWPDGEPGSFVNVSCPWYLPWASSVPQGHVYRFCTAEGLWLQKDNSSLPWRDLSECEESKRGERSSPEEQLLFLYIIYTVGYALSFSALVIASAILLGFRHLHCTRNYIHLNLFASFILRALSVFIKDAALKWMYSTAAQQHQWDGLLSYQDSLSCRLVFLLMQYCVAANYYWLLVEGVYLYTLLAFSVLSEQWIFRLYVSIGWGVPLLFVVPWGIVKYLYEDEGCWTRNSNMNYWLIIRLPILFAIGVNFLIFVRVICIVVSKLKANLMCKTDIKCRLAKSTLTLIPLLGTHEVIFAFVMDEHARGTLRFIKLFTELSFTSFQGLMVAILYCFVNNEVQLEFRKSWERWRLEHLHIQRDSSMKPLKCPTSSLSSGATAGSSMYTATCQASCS

| Compound | EC50 (human GLP1R; [1]) [nM] | GCGR/GLP1R ratio (human GCGR) | EC50 (human GLP1R) [nM] | EC50 (human GCGR) [nM] | EC50 (human GCGR; [2]) [nM] |
| --- | --- | --- | --- | --- | --- |
| CC(C)C[C@H](NC(=O)[C@H](Cc1ccc(O)cc1)NC(=O)[C@H](CCCCN)NC(=O)[C@H](CO)NC(=O)[C@H](Cc1ccc(O)cc1)NC(=O)[C@H](CC(=O)O)NC(=O)[C@H](CO)NC(=O)[C@@H](NC(=O)[C@H](Cc1ccccc1)NC(=O)[C@@H](NC(=O)CNC(=O)[C@H](CCC(N)=O)NC(=O)C(C)(C)NC(=O)[C@@H](N)Cc1c[nH]cn1)[C@@H](C)O)[C@@H](C)O)C(=O)N[C@@H](CC(=O)O)C(=O)N[C@@H](C)C(=O)N[C@@H](CCCNC(=N)N)C(=O)N[C@@H](C)C(=O)N[C@@H](C)C(=O)N[C@@H](CCCCNC(=O)COCCOCCNC(=O)COCCOCCNC(=O)CC[C@H](NC(=O)CCCCCCCCCCCCCCCCC(=O)O)C(=O)O)C(=O)N[C@@H](CC(=O)O)C(=O)N[C@@H](Cc1ccccc1)C(=O)N[C@H](C(=O)N[C@@H](CCCCN=[N+]=[N-])C(=O)N[C@@H](Cc1c[nH]c2ccccc12)C(=O)N[C@@H](CC(C)C)C(=O)N[C@@H](CCS(C)(=O)=O)C(=O)N[C@@H](CC(=O)O)C(=O)N[C@H](C(N)=O)[C@@H](C)O)C(C)C [PEP30] | 0.5 | 4.5 |  |  |  |
| CCCCCCCCCCCCCCCC(=O)N[C@@H](CCC(=O)N[C@@H](CCC(=O)NCCCC[C@H](NC(=O)[C@](C)(CC(=O)O)NC(=O)[C@H](CO)NC(=O)[C@@H](NC(=O)[C@H](Cc1ccccc1)NC(=O)[C@@H](NC(=O)CNC(=O)[C@H](CCC(N)=O)NC(=O)[C@@H](CO)NC(=O)[C@@H](N)Cc1c[nH]cn1)[C@@H](C)O)[C@@H](C)O)C(=O)N[C@@H](CO)C(=O)N[C@@H](CCCCN)C(=O)N[C@@H](Cc1ccc(O)cc1)C(=O)N[C@@H](CC(C)C)C(=O)N[C@@H](CC(=O)O)C(=O)N[C@@H](CCC(=O)O)C(=O)N[C@@H](CCCNC(=N)N)C(=O)N[C@@H](C)C(=O)N[C@@H](C)C(=O)N[C@@H](CCC(N)=O)C(=O)N[C@@H](CC(=O)O)C(=O)N[C@@H](Cc1ccccc1)C(=O)N[C@H](C(=O)N[C@@H](CCCCN=[N+]=[N-])C(=O)N[C@@H](Cc1c[nH]c2ccccc12)C(=O)N[C@@H](CC(C)C)C(=O)N[C@@H](CCS(C)(=O)=O)C(=O)N[C@@H](CC(=O)O)C(=O)N[C@H](C(N)=O)[C@@H](C)O)C(C)C)C(=O)O)C(=O)O [PEP32] |  | 1.5 | 0.04 | 0.06 |  |
| CCCCCCCCCCCCCCCC(=O)N[C@@H](CCC(=O)N[C@@H](CCC(=O)NCCCC[C@H](NC(=O)[C@H](CC(=O)O)NC(=O)[C@H](CO)NC(=O)[C@@H](NC(=O)[C@H](Cc1ccccc1)NC(=O)[C@@H](NC(=O)CNC(=O)[C@H](CCC(N)=O)NC(=O)[C@@H](CO)NC(=O)[C@@H](N)Cc1c[nH]cn1)[C@@H](C)O)[C@@H](C)O)C(=O)N[C@@H](CO)C(=O)N[C@@H](CCCCN)C(=O)N[C@@H](Cc1ccc(O)cc1)C(=O)N[C@@H](CC(C)C)C(=O)N[C@@H](CC(=O)O)C(=O)N[C@@H](CCC(=O)O)C(=O)N[C@@H](CCCNC(=N)N)C(=O)N[C@@H](C)C(=O)N[C@@H](C)C(=O)N[C@@H](CCC(N)=O)C(=O)N[C@@](C)(CC(=O)O)C(=O)N[C@@H](Cc1ccccc1)C(=O)N[C@H](C(=O)N[C@@H](CCCCN=[N+]=[N-])C(=O)N[C@@H](Cc1c[nH]c2ccccc12)C(=O)N[C@@H](CC(C)C)C(=O)N[C@@H](CCS(C)(=O)=O)C(=O)N[C@@H](CC(=O)O)C(=O)N[C@H](C(N)=O)[C@@H](C)O)C(C)C)C(=O)O)C(=O)O [PEP34] |  | 1.0 | 0.05 | 0.05 |  |
| CCCCCCCCCCCCCCCC(=O)N[C@@H](CCC(=O)N[C@@H](CCC(=O)NCCCC[C@H](NC(=O)[C@H](CC(=O)O)NC(=O)[C@H](CO)NC(=O)[C@@H](NC(=O)[C@H](Cc1ccccc1)NC(=O)[C@@H](NC(=O)CNC(=O)[C@H](CCC(N)=O)NC(=O)[C@@H](CO)NC(=O)[C@@H](N)Cc1c[nH]cn1)[C@@H](C)O)[C@@H](C)O)C(=O)N[C@@H](CO)C(=O)N[C@@H](CCCCN)C(=O)N[C@@H](Cc1ccc(O)cc1)C(=O)N[C@@H](CC(C)C)C(=O)N[C@@H](CC(=O)O)C(=O)N[C@@H](CCC(=O)O)C(=O)N[C@@H](CCCNC(=N)N)C(=O)N[C@@H](C)C(=O)N[C@@H](C)C(=O)N[C@@H](CCC(N)=O)C(=O)N[C@@H](CC(=O)O)C(=O)N[C@@](C)(Cc1ccccc1)C(=O)N[C@H](C(=O)N[C@@H](CCCCN=[N+]=[N-])C(=O)N[C@@H](Cc1c[nH]c2ccccc12)C(=O)N[C@@H](CC(C)C)C(=O)N[C@@H](CCS(C)(=O)=O)C(=O)N[C@@H](CC(=O)O)C(=O)N[C@H](C(N)=O)[C@@H](C)O)C(C)C)C(=O)O)C(=O)O [PEP35] | 0.05 | 1.0 |  |  | 0.05 |
| CCCCCCCCCCCCCCCC(=O)N[C@@H](CCC(=O)N[C@@H](CCC(=O)NCCCC[C@H](NC(=O)[C@H](CC(=O)O)NC(=O)[C@H](CO)NC(=O)[C@@H](NC(=O)[C@H](Cc1ccccc1)NC(=O)[C@@H](NC(=O)CNC(=O)[C@H](CCC(N)=O)NC(=O)[C@@H](CO)NC(=O)[C@@H](N)Cc1c[nH]cn1)[C@@H](C)O)[C@@H](C)O)C(=O)N[C@@H](CO)C(=O)N[C@@H](CCCCN)C(=O)N[C@@H](Cc1ccc(O)cc1)C(=O)N[C@@H](CC(C)C)C(=O)N[C@@H](CC(=O)O)C(=O)N[C@@H](CCC(=O)O)C(=O)N[C@@H](CCCNC(=N)N)C(=O)N[C@@H](C)C(=O)N[C@@H](C)C(=O)N[C@@H](CCC(N)=O)C(=O)N[C@@H](CC(=O)O)C(=O)N[C@@H](Cc1ccccc1)C(=O)N[C@H](C(=O)N[C@@H](CCCCN=[N+]=[N-])C(=O)N[C@@H](Cc1c[nH]c2ccccc12)C(=O)N[C@@](C)(CC(C)C)C(=O)N[C@@H](CCS(C)(=O)=O)C(=O)N[C@@H](CC(=O)O)C(=O)N[C@H](C(N)=O)[C@@H](C)O)C(C)C)C(=O)O)C(=O)O [PEP37] | 0.04 | 1.5 |  |  | 0.06 |
| CSCC[C@H](NC(=O)[C@H](CC(C)C)NC(=O)[C@H](Cc1c[nH]c2ccccc12)NC(=O)[C@H](CCCCN=[N+]=[N-])NC(=O)[C@@H](NC(=O)[C@H](Cc1ccccc1)NC(=O)[C@H](CC(=O)O)NC(=O)[C@H](CCC(N)=O)NC(=O)[C@H](C)NC(=O)[C@H](C)NC(=O)[C@H](CCCNC(=N)N)NC(=O)C(C)(C)NC(=O)[C@H](CC(=O)O)NC(=O)[C@H](CC(C)C)NC(=O)[C@H](Cc1ccc(O)cc1)NC(=O)[C@H](CCCCN)NC(=O)[C@H](CO)NC(=O)[C@H](CCCCN)NC(=O)[C@H](CC(=O)O)NC(=O)[C@H](CO)NC(=O)[C@@H](NC(=O)[C@H](Cc1ccccc1)NC(=O)[C@@H](NC(=O)CNC(=O)[C@H](CCC(N)=O)NC(=O)C(C)(C)NC(=O)[C@@H](N)Cc1c[nH]cn1)[C@@H](C)O)[C@@H](C)O)C(C)C)C(=O)N[C@@H](CC(N)=O)C(=O)N[C@H](C(=O)N[C@@H](CCCCN)C(=O)N[C@@H](CCC(N)=O)C(=O)O)[C@@H](C)O [PEP68] (H-H[Aib]QGTFTSDKSKYLD[Aib]RAAQDFV[Lys(N3)]WLMNTKQ-OH; N-terminus assumed) | 0.07 | 38.6 |  |  | 2.7 |
| CC(C)C[C@H](NC(=O)[C@H](Cc1ccc(O)cc1)NC(=O)[C@H](CCCCN)NC(=O)[C@H](CO)NC(=O)[C@H](CCCCN)NC(=O)[C@H](CC(=O)O)NC(=O)[C@H](CO)NC(=O)[C@@H](NC(=O)[C@H](Cc1ccccc1)NC(=O)[C@@H](NC(=O)CNC(=O)[C@H](CCC(N)=O)NC(=O)[C@@H](CO)NC(=O)[C@@H](N)Cc1c[nH]cn1)[C@@H](C)O)[C@@H](C)O)C(=O)N[C@@H](CC(=O)O)C(=O)N[C@@H](CCC(=O)O)C(=O)N[C@@H](CCCNC(=N)N)C(=O)N[C@@H](C)C(=O)N[C@@H](C)C(=O)N[C@@H](CCC(N)=O)C(=O)N[C@@H](CC(=O)O)C(=O)N[C@@H](Cc1ccccc1)C(=O)N[C@H](C(=O)N[C@@H](CCCCN=[N+]=[N-])C(=O)N[C@@H](Cc1c[nH]c2ccccc12)C(=O)N[C@@H](CC(C)C)C(=O)N[C@@H](CC(C)C)C(=O)N[C@@H](CC(=O)O)C(=O)N[C@H](C(N)=O)[C@@H](C)O)C(C)C [PEP69] |  | 1.9 | 0.16 | 0.31 |  |
| CC(C)C[C@H](NC(=O)[C@H](Cc1ccc(O)cc1)NC(=O)[C@H](CCCCN)NC(=O)[C@H](CO)NC(=O)[C@H](CCCCN)NC(=O)[C@H](CC(=O)O)NC(=O)[C@H](CO)NC(=O)[C@@H](NC(=O)[C@H](Cc1ccccc1)NC(=O)[C@@H](NC(=O)CNC(=O)[C@H](CCC(N)=O)NC(=O)[C@@H](CO)NC(=O)[C@@H](N)Cc1c[nH]cn1)[C@@H](C)O)[C@@H](C)O)C(=O)N[C@@H](CC(=O)O)C(=O)N[C@@H](CCC(=O)O)C(=O)N[C@@H](CCCNC(=N)N)C(=O)N[C@@H](C)C(=O)N[C@@H](C)C(=O)N[C@@H](CCCCN=[N+]=[N-])C(=O)N[C@@H](CC(=O)O)C(=O)N[C@@H](Cc1ccccc1)C(=O)N[C@H](C(=O)N[C@@H](CCC(N)=O)C(=O)N[C@@H](Cc1c[nH]c2ccccc12)C(=O)N[C@@H](CC(C)C)C(=O)N[C@@H](CC(C)C)C(=O)N[C@@H](CC(=O)O)C(=O)N[C@H](C(N)=O)[C@@H](C)O)C(C)C [PEP71] | 0.06 | 2.0 |  | 0.12 |  |
| CSCC[C@H](NC(=O)[C@H](CC(C)C)NC(=O)[C@H](Cc1c[nH]c2ccccc12)NC(=O)[C@H](CCC(N)=O)NC(=O)[C@@H](NC(=O)[C@H](Cc1ccccc1)NC(=O)[C@H](CC(=O)O)NC(=O)[C@H](CCC(N)=O)NC(=O)[C@H](C)NC(=O)[C@H](C)NC(=O)[C@H](CCCNC(=N)N)NC(=O)C(C)(C)NC(=O)[C@H](CC(=O)O)NC(=O)[C@H](CC(C)C)NC(=O)[C@H](Cc1ccc(O)cc1)NC(=O)[C@H](CCCCN)NC(=O)[C@H](CO)NC(=O)[C@H](CCCCN)NC(=O)[C@H](CC(=O)O)NC(=O)[C@H](CO)NC(=O)[C@@H](NC(=O)[C@H](Cc1ccccc1)NC(=O)[C@@H](NC(=O)CNC(=O)[C@H](CCC(N)=O)NC(=O)C(C)(C)NC(=O)[C@@H](N)Cc1c[nH]cn1)[C@@H](C)O)[C@@H](C)O)C(C)C)C(=O)N[C@@H](CC(N)=O)C(=O)N[C@H](C(=O)N[C@@H](CCCCN)C(=O)N[C@@H](CCC(N)=O)C(=O)N[C@@H](CCCCN=[N+]=[N-])C(N)=O)[C@@H](C)O [PEP72] | 0.04 | 97.5 |  |  | 3.9 |
